{"source": "patent US10945432B2", "about": "“Active compound combinations comprising a (thio)carboxamide derivative and a fungicidal compound” (BAYER CROPSCIENCE AKTIENGESELLSCHAFT, priority 2013, dated 2021)", "type_in_all_cases": "in vivo", "key": {"Sphaerotheca fuliginea": {"tested_on": "Sphaerotheca fuliginea", "experiment": "Sphaerotheca test (cucumbers)/preventive", "conditions": "Table E1, 7 days after inoculation", "procedure": "(§1) • Solvent: 24.5 parts by weight of acetone • 24.5 parts by weight of dimethylacetamide • Emulsifier: 1 part by weight of alkylaryl polyglycol ether\n(§2) To produce a suitable preparation of active compound, 1 part by weight of active compound is mixed with the stated amounts of solvent and emulsifier, and the concentrate is diluted with water to the desired concentration.\nTo test for preventive activity, young plants are sprayed with the preparation of active compound at the stated rate of application. After the spray coating has dried on, the plants are inoculated with an aqueous spore suspension of Sphaerotheca fuliginea. The plants are then placed in a greenhouse at approximately 23° C. and a relative atmospheric humidity of approximately 70%.\nThe test is evaluated 7 days after the inoculation. 0% means an efficacy which corresponds to that of the untreated control, while an efficacy of 100% means that no disease is observed."}, "Septoria tritici": {"tested_on": "Septoria tritici", "experiment": "Septoria tritici-test (wheat)/preventive", "conditions": "21 days after inoculation", "procedure": "(§3) • Solvent: 49 parts by weight of N,N-dimethylacetamide • Emulsifier: 1 part by weight of alkylaryl polyglycol ether\n(§4) To produce a suitable preparation of active compound, 1 part by weight of active compound or active compound combination is mixed with the stated amounts of solvent and emulsifier, and the concentrate is diluted with water to the desired concentration.\nTo test for preventive activity, young plants are sprayed with the preparation of active compound or active compound combination at the stated rate of application. After the spray coating has been dried, the plants are sprayed with a spore suspension of Septoria tritici. The plants remain for 48 hours in an incubation cabinet at approximately 20° C. and a relative atmospheric humidity of approximately 100% and afterwards for 60 hours at approximately 15° C. in a translucent incubation cabinet at a relative atmospheric humidity of approximately 100%. The plants are placed in the greenhouse at a temperature of approximately 15° C. and a relative atmospheric humidity of approximately 80%.\nThe test is evaluated 21 days after the inoculation. 0% means an efficacy which corresponds to that of the untreated control, while an efficacy of 100% means that no disease is observed."}, "Pyrenophora teres": {"tested_on": "Pyrenophora teres", "experiment": "Pyrenophora teres-test (barley)/preventive", "conditions": "Table C1, 8 days after inoculation", "procedure": "as §3, §4\nTo test for preventive activity, young plants are sprayed with the preparation of active compound or active compound combination at the stated rate of application. After the spray coating has been dried, the plants are sprayed with a spore suspension of Pyrenophora teres. The plants remain for 48 hours in an incubation cabinet at approximately 20° C. and a relative atmospheric humidity of approximately 100%. The plants are placed in the greenhouse at a temperature of approximately 20° C. and a relative atmospheric humidity of approximately 80%.\nThe test is evaluated 8 days after the inoculation. 0% means an efficacy which corresponds to that of the untreated control, while an efficacy of 100% means that no disease is observed."}, "Botrytis cinerea": {"tested_on": "Botrytis cinerea", "experiment": "Botrytis test (beans)/preventive", "conditions": "Table B1, 2 days after inoculation", "procedure": "as §1, §2\nTo test for preventive activity, young plants are sprayed with the preparation of active compound. After the spray coating has dried on, 2 small pieces of agar covered with growth of Botrytis cinerea are placed on each leaf. The inoculated plants are placed in a darkened chamber at 20° C. and a relative atmospheric humidity of 100%.\n2 days after the inoculation, the size of the lesions on the leaves is evaluated. 0% means an efficacy which corresponds to that of the untreated control, while an efficacy of 100% means that no disease is observed."}, "Alternaria solani": {"tested_on": "Alternaria solani", "experiment": "Alternaria test (tomatoes)/preventive", "conditions": "3 days after inoculation", "procedure": "as §1, §2\nTo test for preventive activity, young plants are sprayed with the preparation of active compound at the stated rate of application. After the spray coating has dried on, the plants are inoculated with an aqueous spore suspension of Alternaria solani. The plants are then placed in an incubation cabinet at approximately 20° C. and a relative atmospheric humidity of 100%.\nThe test is evaluated 3 days after the inoculation. 0% means an efficacy which corresponds to that of the untreated control while an efficacy of 100% means that no disease is observed."}, "Venturia inaequalis": {"tested_on": "Venturia inaequalis", "experiment": "Venturia test (apples)/preventive", "conditions": "10 days after inoculation", "procedure": "as §1, §2\nTo test for preventive activity, young plants are sprayed with the preparation of active compound at the stated rate of application. After the spray coating has dried on, the plants are inoculated with an aqueous conidia suspension of the causal agent of apple scab (Venturia inaequalis) and then remain for 1 day in an incubation cabinet at approximately 20° C. and a relative atmospheric humidity of 100%. The plants are then placed in a greenhouse at approximately 21° C. and a relative atmospheric humidity of approximately 90%.\nThe test is evaluated 10 days after the inoculation. 0% means an efficacy which corresponds to that of the untreated control, while an efficacy of 100% means that no disease is observed."}}}
{"smiles": "CON(C(=O)c1cn(C)nc1C(F)F)C(C)Cc1c(Cl)cc(Cl)cc1Cl", "note": "(centres unmarked) [b29, 3-(difluoromethyl)-N-methoxy-1-methyl-N-[1-(2,4,6-trichlorophenyl)propan-2-yl]-1H-pyrazole-4-carboxamide]", "values": [{"measurement": "Efficacy in % found", "setting": "Sphaerotheca fuliginea; 0.25 ppm a.i.", "result": 30, "unit": "%"}, {"measurement": "Efficacy in % found", "setting": "Sphaerotheca fuliginea; 1 ppm a.i.", "result": 30, "unit": "%"}, {"measurement": "Efficacy in % found", "setting": "Septoria tritici; Table D1, 5 ppm a.i.", "result": 94, "unit": "%"}]}
{"smiles": "CC(C)c1ccc(Cl)cc1CN(C(=O)c1c(C(F)F)nn(C)c1F)C1CC1", "note": "[compound A5, N-(5-chloro-2-isopropylbenzyl)-N-cyclopropyl-3-(difluoromethyl)-5-fluoro-1-methyl-1H-pyrazole-4-carboxamide]", "values": [{"measurement": "Efficacy in % found", "setting": "Pyrenophora teres; 10 ppm a.i.", "result": 13, "unit": "%"}, {"measurement": "Efficacy in % found", "setting": "Botrytis cinerea; 1 ppm a.i.", "result": 15, "unit": "%"}, {"measurement": "Efficacy in % found", "setting": "Sphaerotheca fuliginea; 0.5 ppm a.i.", "result": 30, "unit": "%"}, {"measurement": "Efficacy in % found", "setting": "Sphaerotheca fuliginea; 1 ppm a.i.", "result": 37, "unit": "%"}, {"measurement": "Efficacy in % found", "setting": "Alternaria solani; Table A1, 0.5 ppm a.i.", "result": 38, "unit": "%"}, {"measurement": "Efficacy in % found", "setting": "Alternaria solani; Table A1, 1 ppm a.i.", "result": 30, "unit": "%"}, {"measurement": "Efficacy in % found", "setting": "Alternaria solani; Table A2, 0.5 ppm a.i.", "result": 0, "unit": "%"}, {"measurement": "Efficacy in % found", "setting": "Alternaria solani; Table A2, 1 ppm a.i.", "result": 41, "unit": "%"}, {"measurement": "Efficacy in % found", "setting": "Venturia inaequalis; Table F1, 0.5 ppm a.i.", "result": 0, "unit": "%"}, {"measurement": "Efficacy in % found", "setting": "Venturia inaequalis; Table F1, 1 ppm a.i.", "result": 0, "unit": "%"}, {"measurement": "Efficacy in % found", "setting": "Venturia inaequalis; Table F2, 0.5 ppm a.i.", "result": 0, "unit": "%"}, {"measurement": "Efficacy in % found", "setting": "Venturia inaequalis; Table F2, 1 ppm a.i.", "result": 0, "unit": "%"}, {"measurement": "Efficacy in % found", "setting": "Venturia inaequalis; Table F2, 2 ppm a.i.", "result": 29, "unit": "%"}, {"measurement": "Efficacy in % found", "setting": "Septoria tritici; Table D1, 5 ppm a.i.", "result": 50, "unit": "%"}, {"measurement": "Efficacy in % found", "setting": "Septoria tritici; Table D1, 10 ppm a.i.", "result": 50, "unit": "%"}, {"measurement": "Efficacy in % found", "setting": "Septoria tritici; Table D2, 10 ppm a.i.", "result": 17, "unit": "%"}, {"measurement": "Efficacy in % found", "setting": "Septoria tritici; Table D2, 20 ppm a.i.", "result": 67, "unit": "%"}]}
{"smiles": "CC1(C)N=C(c2cnc3ccccc3c2)c2ccccc2C1(F)F", "note": "[b27, 3-(4,4-difluoro-3,3-dimethyl-3,4-dihydroisoquinolin-1-yl)quinoline]", "values": [{"measurement": "Efficacy in % found", "setting": "Pyrenophora teres; 60 ppm a.i.", "result": 38, "unit": "%"}, {"measurement": "Efficacy in % found", "setting": "Pyrenophora teres; 240 ppm a.i.", "result": 75, "unit": "%"}, {"measurement": "Efficacy in % found", "setting": "Botrytis cinerea; 1 ppm a.i.", "result": 60, "unit": "%"}, {"measurement": "Efficacy in % found", "setting": "Venturia inaequalis; Table F1, 0.5 ppm a.i.", "result": 23, "unit": "%"}]}
{"smiles": "CC1(C)CN=C(c2cnc3ccccc3c2)c2cccc(F)c2O1", "note": "[b45, 9-fluoro-2,2-dimethyl-5-(quinolin-3-yl)-2,3-dihydro-1,4-benzoxazepine]", "values": [{"measurement": "Efficacy in % found", "setting": "Alternaria solani; Table A2, 0.5 ppm a.i.", "result": 24, "unit": "%"}, {"measurement": "Efficacy in % found", "setting": "Venturia inaequalis; Table F2, 1 ppm a.i.", "result": 0, "unit": "%"}, {"measurement": "Efficacy in % found", "setting": "Septoria tritici; Table D2, 50 ppm a.i.", "result": 0, "unit": "%"}, {"measurement": "Efficacy in % found", "setting": "Septoria tritici; Table D2, 200 ppm a.i.", "result": 0, "unit": "%"}]}
{"smiles": "CCC(O)(Cn1cncn1)c1ccc(Oc2ccc(Cl)cc2)cc1C(F)(F)F", "note": "(centres unmarked) [b41, 2-[4-(4-chlorophenoxy)-2-(trifluoromethyl)phenyl]-1-(1H-1,2,4-triazol-1-yl)butan-2-ol]", "values": [{"measurement": "Efficacy in % found", "setting": "Pyrenophora teres; 15 ppm a.i.", "result": 25, "unit": "%"}, {"measurement": "Efficacy in % found", "setting": "Pyrenophora teres; 60 ppm a.i.", "result": 0, "unit": "%"}, {"measurement": "Efficacy in % found", "setting": "Botrytis cinerea; 10 ppm a.i.", "result": 36, "unit": "%"}]}
{"smiles": "Cc1nc2c(F)cccc2cc1Oc1cccc(F)c1C(C)(C)O", "note": "[b46, 2-{2-fluoro-6-[(8-fluoro-2-methylquinolin-3-yl)oxy]phenyl}propan-2-ol]", "values": [{"measurement": "Efficacy in % found", "setting": "Alternaria solani; Table A2, 0.5 ppm a.i.", "result": 18, "unit": "%"}, {"measurement": "Efficacy in % found", "setting": "Alternaria solani; Table A2, 1 ppm a.i.", "result": 24, "unit": "%"}, {"measurement": "Efficacy in % found", "setting": "Venturia inaequalis; Table F2, 0.5 ppm a.i.", "result": 18, "unit": "%"}, {"measurement": "Efficacy in % found", "setting": "Septoria tritici; Table D2, 50 ppm a.i.", "result": 0, "unit": "%"}, {"measurement": "Efficacy in % found", "setting": "Septoria tritici; Table D2, 200 ppm a.i.", "result": 67, "unit": "%"}]}
{"smiles": "Cc1nn(C)c(Nc2c(F)cc(Cl)cc2F)c1-c1ccc(F)cc1Cl", "note": "[b39, N-(4-chloro-2,6-difluorophenyl)-4-(2-chloro-4-fluorophenyl)-1,3-dimethyl-1H-pyrazol-5-amine]", "values": [{"measurement": "Efficacy in % found", "setting": "Alternaria solani; Table A1, 1 ppm a.i.", "result": 17, "unit": "%"}, {"measurement": "Efficacy in % found", "setting": "Septoria tritici; Table D1, 60 ppm a.i.", "result": 50, "unit": "%"}, {"measurement": "Efficacy in % found", "setting": "Septoria tritici; Table D1, 240 ppm a.i.", "result": 88, "unit": "%"}]}
{"smiles": "CC(O)(Cn1cncn1)c1ccc(Oc2ccc(Cl)cc2)cc1C(F)(F)F", "note": "(centres unmarked) [b40, 2-[4-(4-chlorophenoxy)-2-(trifluoromethyl)phenyl]-1-(1H-1,2,4-triazol-1-yl)propan-2-ol]", "values": [{"measurement": "Efficacy in % found", "setting": "Sphaerotheca fuliginea; 2.5 ppm a.i.", "result": 37, "unit": "%"}, {"measurement": "Efficacy in % found", "setting": "Sphaerotheca fuliginea; 10 ppm a.i.", "result": 85, "unit": "%"}, {"measurement": "Efficacy in % found", "setting": "Alternaria solani; Table A1, 2.5 ppm a.i.", "result": 66, "unit": "%"}]}
{"smiles": "Cc1nc2c(F)c(F)ccc2cc1Oc1cccc(F)c1C(C)(C)O", "note": "[b47, 2-{2-[(7,8-difluoro-2-methylquinolin-3-yl)oxy]-6-fluorophenyl}propan-2-ol]", "values": [{"measurement": "Efficacy in % found", "setting": "Alternaria solani; Table A2, 0.5 ppm a.i.", "result": 9, "unit": "%"}, {"measurement": "Efficacy in % found", "setting": "Alternaria solani; Table A2, 1 ppm a.i.", "result": 29, "unit": "%"}, {"measurement": "Efficacy in % found", "setting": "Venturia inaequalis; Table F2, 0.5 ppm a.i.", "result": 30, "unit": "%"}, {"measurement": "Efficacy in % found", "setting": "Septoria tritici; Table D2, 50 ppm a.i.", "result": 0, "unit": "%"}, {"measurement": "Efficacy in % found", "setting": "Septoria tritici; Table D2, 200 ppm a.i.", "result": 67, "unit": "%"}]}
